Assay results from patent US9199962B2, “Substituted azaheterocycles for the treatment of cancer” (Merck Patent GmbH, priority 2011, dated 2015).
Like-named read-outs stand apart in the source and are kept apart here.

Biological target: T1, GST-FAK (N-terminal GST fusion with truncated human FAK (376-1052 (end) amino acids)) (Homo sapiens, UniProt Q05397)
T1 construct: truncated human FAK (376-1052 (end) amino acids)
Experiment: Biochemical enzyme assay for FAK activity (Caliper LC3000 mobility shift)
Settings: 100 uM ATP, read-out: FAK IC50
Method: 1. Biochemical Enzyme Assays for FAK Activity
The FAK assays described here are performed on two Caliper Life Sciences systems, the LC3000 and the EZ Reader II. These provide data on enzyme activity via measurement of the relative amounts of phosphorylated or unphosphorylated fluorescently labelled substrate peptide at the end of an enzymatic reaction. These different states of peptide are resolved by applying a potential difference across the sample. The presence of the charged phosphate group on the product (as opposed to the substrate) causes different peptide mobility between the two peptides. This is visualized by excitation of the fluorescent label on the substrate and product peptides and represented as peaks within the analysis software.
In order to measure inhibitor activity of FAK, inhibitors in the Caliper Life Sciences LC3000, a TTP Mosquito liquid handling instrument is used to place 0.25 ul of the appropriate concentration of inhibitor in 100% DMSO (for a dose response curve calculation) into each well of a 384-well plate. To this reaction components are added to a final volume of 25 ul: • 0.067 ng/ul GST-FAK (N-terminal GST fusion with truncated human FAK (376-1052 (end) amino acids)) • 100 uM ATP • 1 mM DTT • 1 mM MgCl2 • 1 uM substrate peptide (sequence FITC-KGWMEDYDYVHLQGKK-(CONH2)SEQ ID NO: 1)) • 1 mM FERM peptide (sequence NH2-GATQSFIIR-COOH (SEQ ID NO: 2)) • 100 mM HEPES pH 7.5 • 0.015% Brij-35
The reaction is incubated for 90 min at 25 C, and then stopped by the addition of 70 ul of Stop buffer (100 mM HEPES pH 7.5, 0.015% Brij-35, 10 mM EDTA).
The plate is read on a Caliper LC 3000 in an Off-Chip mobility shift assay format, using the following parameters for a 12-sipper chip: screening pressure—1.9 psi, upstream voltage—3000, downstream voltage—700. These conditions cause unphosphorylated substrate and phosphorylated product peptide to resolve as separate peaks allowing direct measurement of percentage of conversion of substrate to product. The percent conversion can be plotted against concentration of inhibitor to produce a sigmoid dose response curve, from which an IC50 can be calculated using XLFit for Microsoft Excel.

T1 sequence (Q05397 376-1052): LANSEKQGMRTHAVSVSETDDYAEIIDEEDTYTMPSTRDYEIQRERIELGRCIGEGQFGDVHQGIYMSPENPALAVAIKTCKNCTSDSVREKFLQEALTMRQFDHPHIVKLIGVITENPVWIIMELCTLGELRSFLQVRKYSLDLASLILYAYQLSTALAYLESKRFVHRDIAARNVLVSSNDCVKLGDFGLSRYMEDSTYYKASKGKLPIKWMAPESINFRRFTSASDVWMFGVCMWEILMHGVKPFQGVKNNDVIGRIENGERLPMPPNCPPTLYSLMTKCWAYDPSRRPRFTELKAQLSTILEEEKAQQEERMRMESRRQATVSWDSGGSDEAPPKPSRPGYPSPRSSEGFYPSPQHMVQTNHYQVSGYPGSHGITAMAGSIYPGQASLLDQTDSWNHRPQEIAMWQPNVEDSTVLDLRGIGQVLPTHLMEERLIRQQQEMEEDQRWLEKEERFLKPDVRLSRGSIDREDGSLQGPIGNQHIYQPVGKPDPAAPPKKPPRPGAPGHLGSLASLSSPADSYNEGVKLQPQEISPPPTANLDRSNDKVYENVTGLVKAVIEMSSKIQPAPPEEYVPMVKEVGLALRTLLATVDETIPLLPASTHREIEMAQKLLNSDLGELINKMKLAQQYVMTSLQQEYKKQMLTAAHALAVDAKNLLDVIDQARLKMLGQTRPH

Row | SMILES | IC50 (Table 2) [nM] | IC50 (Table 3) [nM] | further results
1 | Clc1cncc(-c2nccc(NCC3CC3)n2)c1 [Compound 36, [2-(5-Chloro-pyridin-3-yl)-pyrimidin-4-yl]-cyclopropylmethyl-amine] |  |  | IC50 (Table 1): 1000 to 10000 nM
2 | Clc1cncc(-c2nccc(NCC3CCCCC3)n2)c1 [Compound 37, [2-(5-Chloro-pyridin-3-yl)-pyrimidin-4-yl]-cyclohexylmethyl-amine] |  |  | IC50 (Table 1): 1000 to 10000 nM
3 | Fc1ccccc1CNc1ccnc(-c2cncc(Cl)c2)n1 [Compound 38, [2-(5-Chloro-pyridin-3-yl)-pyrimidin-4-yl]-(2-fluoro-benzyl)-amine] |  |  | IC50 (Table 1): < 100 nM
4 | Fc1ccc(CNc2ccnc(-c3cncc(Cl)c3)n2)cc1 [Compound 39, [2-(5-Chloro-pyridin-3-yl)-pyrimidin-4-yl]-(4-fluoro-benzyl)-amine] |  |  | IC50 (Table 1): 100 to 1000 nM
5 | CC1(C)Cc2cccc(CNc3ccnc(-c4cncc(C(=O)N5CCOCC5)c4)n3)c2O1 [Compound 40, (5-{4-[(2,2-Dimethyl-2,3-dihydro-benzofuran-7-ylmethyl)-amino]-pyrimidin-2-yl}-pyridin-3-yl)-morpholin-4-yl-methanone] |  |  | IC50 (Table 1): > 10000 nM
6 | NC(=O)CCNc1cc(NCc2ccc(F)cc2F)nc(-c2cncc(C(F)(F)F)c2)n1 [Compound 61, 3-[6-(2,4-Difluoro-benzylamino)-2-(5-trifluoromethyl-pyridin-3-yl)-pyrimidin-4-ylamino]-propionamide] | 100 to 1000 |  | 
7 | Fc1ccc(CNc2cc(NC3CCNCC3)nc(-c3cncc(C(F)(F)F)c3)n2)c(F)c1 [Compound 66, N-(2,4-Difluoro-benzyl)-N′-piperidin-4-yl-2-(5-trifluoromethyl-pyridin-3-yl)-pyrimidine-4,6-diamine] | 100 to 1000 |  | 
8 | OCC(Nc1ccnc(-c2cncc(C(F)(F)F)c2)n1)c1ccccc1 (stereo not drawn) [Compound 67, 2-Phenyl-2-[2-(5-trifluoromethyl-pyridin-3-yl)-pyrimidin-4-ylamino]-ethanol] | 100 to 1000 |  | 
9 | CC(Nc1ccnc(-c2cncc(C(F)(F)F)c2)n1)c1ccc(F)cc1 (stereo not drawn) [Compound 68, [1-(4-Fluoro-phenyl)-ethyl]-[2-(5-trifluoromethyl-pyridin-3-yl)-pyrimidin-4-yl]-amine] | 100 to 1000 |  | 
10 | CC(=O)NCCNC(=O)c1cc(NCc2ccc(F)cc2F)nc(-c2cncc(C(F)(F)F)c2)n1 [Compound 69, 6-(2,4-Difluoro-benzylamino)-2-(5-trifluoromethyl-pyridin-3-yl)-pyrimidine-4-carboxylic acid (2-acetylamino-ethyl)-amide] | < 100 |  | 
11 | O=C(NCCc1cccnc1)c1cc(NCc2ccc(F)cc2F)nc(-c2cncc(C(F)(F)F)c2)n1 [Compound 70, 6-(2,4-Difluoro-benzylamino)-2-(5-trifluoromethyl-pyridin-3-yl)-pyrimidine-4-carboxylic acid (2-pyridin-3-yl-ethyl)-amide] | < 100 |  | 
12 | O=C(NCCn1cccn1)c1cc(NCc2ccc(F)cc2F)nc(-c2cncc(C(F)(F)F)c2)n1 [Compound 71, 6-(2,4-Difluoro-benzylamino)-2-(5-trifluoromethyl-pyridin-3-yl)-pyrimidine-4-carboxylic acid (2-pyrazol-1-yl-ethyl)-amide] | < 100 |  | 
13 | Cc1nc(CCNC(=O)c2cc(NCc3ccc(F)cc3F)nc(-c3cncc(C(F)(F)F)c3)n2)cs1 [Compound 73, 6-(2,4-Difluoro-benzylamino)-2-(5-trifluoromethyl-pyridin-3-yl)-pyrimidine-4-carboxylic acid [2-(2-methyl-thiazol-4-yl)-ethyl]-amide] | 100 to 1000 |  | 
14 | CCc1noc(CCNC(=O)c2cc(NCc3ccc(F)cc3F)nc(-c3cncc(C(F)(F)F)c3)n2)n1 [Compound 74, 6-(2,4-Difluoro-benzylamino)-2-(5-trifluoromethyl-pyridin-3-yl)-pyrimidine-4-carboxylic acid [2-(3-ethyl-[1,2,4]oxadiazol-5-yl)-ethyl]-amide] | 100 to 1000 |  | 
15 | O=C(NCCN1CCNC1=O)c1cc(NCc2ccc(F)cc2F)nc(-c2cncc(C(F)(F)F)c2)n1 [Compound 75, 6-(2,4-Difluoro-benzylamino)-2-(5-trifluoromethyl-pyridin-3-yl)-pyrimidine-4-carboxylic acid [2-(2-oxo-imidazolidin-1-yl)-ethyl]-amide] | 100 to 1000 |  | 
16 | CNC(=O)[C@H](NC(=O)c1cc(NCc2ccc(F)cc2F)nc(-c2cncc(C(F)(F)F)c2)n1)C(C)C [Compound 76, 6-(2,4-Difluoro-benzylamino)-2-(5-trifluoromethyl-pyridin-3-yl)-pyrimidine-4-carboxylic acid ((R)-2-methyl-1-methylcarbamoyl-propyl)-amide] | 100 to 1000 |  | 
17 | Nc1ncccc1-c1nccc(NCc2ccccc2F)n1 [Compound 78, 2-(2-Aminopyridin-3-yl)-N-(2-fluorobenzyl)pyrimidin-4-amine] |  | 100 to 1000 | 
18 | Nc1ncccc1-c1nccc(NCc2cccc(F)c2)n1 [Compound 79, 2-(2-Aminopyridin-3-yl)-N-(3-fluorobenzyl)pyrimidin-4-amine] |  | > 10000 | 
19 | Nc1ncccc1-c1nccc(NCc2ccc(F)cc2)n1 [Compound 80, 2-(2-Aminopyridin-3-yl)-N-(4-fluorobenzyl)pyrimidin-4-amine] |  | 1000 to 10000 | 
20 | Nc1ncccc1-c1nccc(NCc2ccccc2)n1 [Compound 81, 2-(2-Aminopyridin-3-yl)-N-benzylpyrimidin-4-amine] |  | 1000 to 10000 | 
21 | Cc1ccccc1CNc1ccnc(-c2cccnc2N)n1 [Compound 82, 2-(2-Aminopyridin-3-yl)-N-(2-methylbenzyl)pyrimidin-4-amine] |  | 1000 to 10000 | 
22 | COc1ccccc1CNc1ccnc(-c2cccnc2N)n1 [Compound 83, 2-(2-Aminopyridin-3-yl)-N-(2-methoxybenzyl)pyrimidin-4-amine] |  | 1000 to 10000 | 
23 | Nc1ncccc1-c1nccc(NCc2ccccc2OC(F)(F)F)n1 [Compound 84, 2-(2-Aminopyridin-3-yl)-N-[2-(trifluoromethoxy)benzyl]pyrimidin-4-amine] |  | 1000 to 10000 | 
24 | Nc1ncccc1-c1nccc(NCc2cccc(F)c2F)n1 [Compound 85, 2-(2-Aminopyridin-3-yl)-N-(2,3-difluorobenzyl)pyrimidin-4-amine] |  | 1000 to 10000 | 
25 | Nc1ncccc1-c1nccc(NCc2ccccc2Cl)n1 [Compound 86, 2-(2-Aminopyridin-3-yl)-N-(2-chlorobenzyl)pyrimidin-4-amine] |  | 100 to 1000 | 
26 | CS(=O)(=O)c1ccccc1CNc1ccnc(-c2cccnc2N)n1 [Compound 87, 2-(2-Aminopyridin-3-yl)-N-[2-(methylsulfonyl)benzyl]pyrimidin-4-amine] |  | 1000 to 10000 | 
27 | CN(c1ncccc1CNc1ccnc(-c2cccnc2N)n1)S(C)(=O)=O [Compound 88, N-[3-({[2-(2-Aminopyridin-3-yl)pyrimidin-4-yl]amino}methyl)pyridin-2-yl]-N-methylmethane-sulfonamide] |  | > 10000 | 
28 | CS(=O)(=O)c1cccc(CNc2ccnc(-c3cccnc3N)n2)c1 [Compound 90, 2-(2-Aminopyridin-3-yl)-N-[3-(methylsulfonyl)benzyl]pyrimidin-4-amine] |  | 1000 to 10000 | 
29 | CN(C)c1ccccc1CNc1ccnc(-c2cccnc2N)n1 [Compound 91, 2-(2-Aminopyridin-3-yl)-N-[2-(dimethylamino)benzyl]pyrimidin-4-amine] |  | 1000 to 10000 | 
30 | Cc1ccc(CNc2ccnc(-c3cccnc3N)n2)cc1 [Compound 92, 2-(2-Aminopyridin-3-yl)-N-(4-methylbenzyl)pyrimidin-4-amine] |  | > 10000 | 
